Source: US9199965B2, “Benzoimidazole derivatives and pharmaceutical composition comprising the same” (Daewoong Co., Ltd., priority 2005, dated 2015)

Key:
[1] = test system: ICR male mice (PBQ-induced writhing); experiment: PBQ-induced writhing test for analgesic effect; type: in vivo; conditions: Mus musculus, 1 h, 20 mg/kg oral, one hour before intraabdominal PBQ (0.02%), read-out: % Inhibition (decrease in number of writhes compared to control)
Protocol: A PBQ-induced writhing test was conducted in mice to assay for the analgesic effect of the novel compounds. Five-week-old ICR male mice were treated with PBQ (phenyl-p-quinone, 0.02%). A suspension of 20 mg of test material in 10 mL of physiological saline was used per kg of weight of mice. Test materials in combination with a carrier were orally administered one hour before the intraabdominal injection of PBQ in a dose of 10 mL per kg weight. From 5 min after the injection, individual mice in each test group were measured for numbers of writhes at regular intervals of 10 min. Analgesic effects of test compounds were expressed as percentages of the decrease in number of writhes compared to a control. [% Inhibition=(Control administered with carrier alone−Group administered with test material)/control administered with carrier alone×100]

human vanilloid-1 (hVR1) = target: T1, human vanilloid-1 (hVR1) (Homo sapiens, UniProt Q8NER1); experiment: Calcium influx of vanilloid receptor in hVR1-HEK293 cells (capsaicin-induced, Fluo-3/AM); type: cell-based; conditions: 1 μM capsaicin-induced intracellular calcium influx, read-out: Inhibitory Activity IC50
T1 construct: expressed in transfected cells; host or cells: HEK293 Tet-on (hVR1-HEK293), doxycycline-induced
T1 sequence (Q8NER1 whole entry): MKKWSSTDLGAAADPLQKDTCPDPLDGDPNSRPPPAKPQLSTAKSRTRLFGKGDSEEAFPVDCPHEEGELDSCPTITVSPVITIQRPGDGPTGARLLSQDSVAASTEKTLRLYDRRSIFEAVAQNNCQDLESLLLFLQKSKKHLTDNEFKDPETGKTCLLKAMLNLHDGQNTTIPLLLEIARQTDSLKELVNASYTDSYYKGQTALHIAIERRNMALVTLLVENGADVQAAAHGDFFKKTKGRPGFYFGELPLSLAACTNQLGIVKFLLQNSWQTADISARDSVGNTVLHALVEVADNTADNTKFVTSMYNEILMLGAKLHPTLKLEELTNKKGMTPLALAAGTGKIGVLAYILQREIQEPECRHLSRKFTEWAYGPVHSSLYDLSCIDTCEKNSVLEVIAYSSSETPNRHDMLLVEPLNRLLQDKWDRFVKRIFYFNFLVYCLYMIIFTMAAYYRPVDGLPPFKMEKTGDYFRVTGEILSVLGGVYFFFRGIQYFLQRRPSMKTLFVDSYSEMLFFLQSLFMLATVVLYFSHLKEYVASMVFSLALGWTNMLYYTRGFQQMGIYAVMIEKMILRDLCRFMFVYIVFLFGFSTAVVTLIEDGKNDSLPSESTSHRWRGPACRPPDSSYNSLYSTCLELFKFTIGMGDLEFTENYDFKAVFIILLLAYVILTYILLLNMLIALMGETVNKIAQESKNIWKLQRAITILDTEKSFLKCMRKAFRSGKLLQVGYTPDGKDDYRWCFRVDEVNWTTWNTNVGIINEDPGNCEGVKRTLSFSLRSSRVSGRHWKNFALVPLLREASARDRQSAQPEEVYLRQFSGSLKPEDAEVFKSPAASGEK
Protocol: Experiments for calcium influx were performed to measure the activity of the compounds as antagonists.
The cell strain hVR1-HEK293 is the human embryonic kidney (HEK) 293 Tet-on cell transfected with a human vanilloid-1 gene (pTRE2hyg-hVR1, 7.8 kb), which is capable of controlling the expression of VR1 according to the administration of deoxycycline, a tetracycline derivative analog. In a medium supplemented with deoxycycline two days before calcium influx experiments, the cell strain was cultured to induce the expression of VR1. After being grown to a confluency of about 80% in T75 flasks, hVR1-HEK293 was detached from the flask using trypsin. Cells harvested by centrifugation were suspended in a medium supplemented with 1 μg/mL of deoxycycline and diluted to a density of 2-4×10^5 cells/mL, after which a 100 μL aliquot of the cell suspension was added to each well of 96 well black plates. Before the measurement of calcium influx, the cells were incubated for two days at 37° C. in a 5% CO2 incubator.
For use in calcium influx experiments, each compound was dissolved in dimethyl sulfoxide (DMSO).
To measure an intracellular calcium influx, cells were incubated at 37° C. for 90 min in a medium containing the calcium indicator Fluo-3/AM so as to allow the fluorescent dye to penetrate into the cells. Then, the cells were washed three times with D-PBS (Dulbecco's phosphate buffered saline) containing 10 mM HEPES to remove the fluorescent dye which remained outside. 193 μL aliquot of D-PBS was added to each well, followed by the addition of various concentrations of compounds thereto. In order to measure the antagonistic activity of the compounds, calcium influx was induced by treatment with 1 μM capsaicin. The inhibitory effect of each compound on 1 μM capsaicin-induced intracellular calcium influx according to compound concentration was measured using a fluorescent analyzer and the data thus obtained were analyzed on the basis of the Hill's equation.

rat TRPV1 = target: T2, rat TRPV1 (Rattus norvegicus, UniProt O35433); experiment: Assay for inhibitory activity against VR1 patch clamp activity (capsaicin current, inside-out patch); type: cell-based; conditions: 1 μM compound with 10 μM capsaicin; rat TRPV1-transfected HEK293, inside-out patch; relative to capsaicin current before compound
T2 construct: expressed in transfected cells; host or cells: HEK293
T2 sequence (O35433 whole entry): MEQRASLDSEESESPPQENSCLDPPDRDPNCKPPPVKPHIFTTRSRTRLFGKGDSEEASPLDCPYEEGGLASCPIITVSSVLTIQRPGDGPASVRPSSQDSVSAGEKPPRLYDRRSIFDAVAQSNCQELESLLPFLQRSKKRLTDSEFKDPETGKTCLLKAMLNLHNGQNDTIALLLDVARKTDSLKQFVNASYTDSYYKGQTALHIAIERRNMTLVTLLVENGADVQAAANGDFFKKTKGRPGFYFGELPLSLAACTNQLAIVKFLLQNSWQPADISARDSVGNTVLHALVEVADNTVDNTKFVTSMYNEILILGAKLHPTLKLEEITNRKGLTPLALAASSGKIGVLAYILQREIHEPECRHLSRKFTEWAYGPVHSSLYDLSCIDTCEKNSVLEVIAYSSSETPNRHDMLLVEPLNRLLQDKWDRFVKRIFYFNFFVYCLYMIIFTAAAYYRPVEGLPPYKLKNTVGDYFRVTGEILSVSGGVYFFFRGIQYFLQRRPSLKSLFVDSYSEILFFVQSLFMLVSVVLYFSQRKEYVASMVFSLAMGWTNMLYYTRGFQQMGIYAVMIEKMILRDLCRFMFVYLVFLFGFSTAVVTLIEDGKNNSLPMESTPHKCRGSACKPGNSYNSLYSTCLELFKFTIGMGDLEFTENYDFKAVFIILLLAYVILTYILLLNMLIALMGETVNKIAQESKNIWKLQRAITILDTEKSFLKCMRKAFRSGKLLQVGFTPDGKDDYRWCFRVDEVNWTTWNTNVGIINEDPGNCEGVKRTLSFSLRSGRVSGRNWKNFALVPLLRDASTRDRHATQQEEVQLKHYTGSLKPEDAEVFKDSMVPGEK
Protocol: Each of the compounds synthesized in the examples were dissolved in dimethyl sulfoxide (DMSO) at a concentration of 10 mM. For use in the assay for inhibitory activity against patch clamp activity, the solutions were diluted to a concentration of 1 μM with the same physiological saline as in the pipette solution of Table 1, below.
2) Assay for Inhibitory Activity Against VR1 Patch Clamp Activity
In this experiment, changes in VR1 activity were recorded in current using an electrophysiological technique.
For use in this experiment, a rat TRPV1 cDNA was transfected into a subcultured HEK293 strain with the aid of lipofectamin.
The rat TRPV1 gene-transfected HEK293 cells were detached from the cell culture dishes with trypsin and distributed on a patch clamp recording chamber.
A cover glass slip on the bottom of the patch clamp recording chamber was treated for 15 min or longer with a […] poly-L-lysine solution so that the HEK cells would readily adhere thereto. Cellular membranes were ruptured at room temperature (˜25° C.) from randomly selected HEK cells to perform an inside-out patch clamp technique. 10 μM of capsaicin was fed into the chamber (cytoplasmic side) to activate a capsaicin current through the VR1. When the capsaicin current reached a stable stage, each compound was added along with 10 μM of capsaicin to record the inhibitory activity of the compounds with regard to the current. The inhibition was expressed as percentages.
Detected current was amplified using a Digidata 1200B A/D converter and an Axopatch 1D amplifier (Axon instruments Inc.), and the data were recorded and analyzed with the aid of a computer. The inhibitory activity of each compound was expressed as a percentage relative to the capsaicin current immediately before the administration of each compound.

SMILES | IC50 (human vanilloid-1 (hVR1)) | inhibition at 1 µM (rat TRPV1) | inhibition in vivo at 20 mg/kg [1]
CC(C)(C)c1ccc2nc(-c3ccc(-c4ncccc4Cl)cc3)[nH]c2c1 [Compound 3, 6-tert-butyl-2-[4-(3-chloropyridin-2-yl)phenyl]-1H-benzoimidazole] | 0.061 µM | 100% | 58%
FC(F)(F)c1cc(Cl)c2nc(-c3ccc(-c4ncccc4Cl)cc3)[nH]c2c1 [Compound 6, 4-chloro-2-[4-(3-chloropyridin-2-yl)phenyl]-6-trifluoromethyl-1H-benzoimidazole] | 0.011 µM | 94% | 33%
Clc1cc2nc(-c3ccc(-c4ncccc4Cl)cc3)[nH]c2cc1Cl [Compound 12, 2-[4-(3-chloropyridin-2-yl)phenyl]-5,6-dichloro-1H-benzoimidazole] | 0.07 µM | – | 35%
CC(C)(C)c1ccc2nc(-c3ccc(-c4ncccc4Cl)cc3F)[nH]c2c1 [Compound 67, 6-tert-butyl-2-[4-(3-chloropyridin-2-yl)-2-fluorophenyl]-1H-benzoimidazole] | 0.122 µM | 80% | 23%
CC(C)(C)c1ccc2nc(-c3ccc(-c4ncccc4Cl)c4ccccc34)[nH]c2c1 [Compound 105, 6-tert-butyl-2-[4-(3-chloropyridin-2-yl)naphthalen-1-yl]-1H-benzoimidazole] | 0.024 µM | 78% | 50%
FC(F)(F)c1cnc2nc(-c3ccc(-c4ncccc4Cl)c4ccccc34)[nH]c2c1 [Compound 107, 2-[4-(3-chloropyridin-2-yl)naphthalen-1-yl]-6-trifluoromethyl-1H-imidazo[4,5-b]pyridine] | 0.017 µM | 97% | 46%
FC(F)(F)c1cc(Cl)c2nc(-c3ccc(-c4ncccc4Cl)cn3)[nH]c2c1 [Compound 138, 3-chloro-6′-(4-chloro-6-trifluoromethyl-1H-benzoimidazole-2-yl)-[2,3′]bipyridine] | 0.016 µM | 73% | 22%
FC(F)(F)c1cc(C(F)(F)F)c2nc(-c3ccc(-c4ncccc4Cl)cn3)[nH]c2c1 [Compound 139, 6′-(4,6-bistrifluoromethyl-1H-benzoimidazole-2-yl)-3-chloro-[2,3′]bipyridine] | 0.038 µM | 89% | 26%
FC(F)(F)c1ccc2nc(-c3ccc(-c4ncccc4C(F)(F)F)cn3)[nH]c2c1 [Compound 158, 3-trifluoromethyl-6′-(6-trifluoromethyl-1H-benzoimidazole-2-yl)-[2,3′]bipyridine] | 0.014 µM | 69% | 53%
FC(F)(F)c1cc(C(F)(F)F)c2nc(-c3ccc(-c4ncccc4C(F)(F)F)cn3)[nH]c2c1 [Compound 162, 6′-(4,6-bistrifluoromethyl-1H-benzoimidazole-2-yl)-3-trifluoromethyl-[2,3′]bipyridine] | 0.014 µM | 99% | 28%
FC(F)(F)c1cc(Br)c2nc(-c3ccc(-c4ncccc4C(F)(F)F)cn3)[nH]c2c1 [Compound 164, 4-bromo-6-(trifluoromethyl)-2-(5-(3-(trifluoromethyl)pyridin-2-yl)pyridin-2-yl)-1H-benzoimidazole] | 0.009 µM | – | 53%

Further compounds by falling IC50 (human vanilloid-1 (hVR1)), results first:

IC50 (human vanilloid-1 (hVR1)) | inhibition at 1 µM (rat TRPV1) | SMILES | inhibition in vivo at 20 mg/kg [1]
0.13 µM | 100% | FC(F)(F)c1ccc2nc(-c3ccc(-c4ncccc4Cl)cc3)[nH]c2c1 [Compound 1, 2-[4-(3-Chloropyridin-2-yl)-phenyl]-6-trifluoromethyl-1H-benzoimidazole] | 33%
0.1 µM | – | CC(C)(C)c1ccc2nc(-c3ccc(-c4ncc(Cl)cc4Cl)cc3)[nH]c2c1 [Compound 25, 6-tert-butyl-2-[4-(3,5-dichloropyridin-2-yl)phenyl]-1H-benzoimidazole] | 23%
0.094 µM | – | FC(F)(F)c1cc(Br)c2nc(-c3ccc(-c4ncccc4C(F)(F)F)cc3)[nH]c2c1 [Compound 36, 4-bromo-6-(trifluoromethyl)-2-(4-(3-(trifluoromethyl)pyridin-2-yl)phenyl)-1H-benzoimidazole] | 70%
0.075 µM | – | FC(F)(F)c1cccnc1-c1ccc(-c2nc3ccc(Br)cc3[nH]2)cc1 [Compound 37, 6-bromo-2-(4-(3-(trifluoromethyl)pyridin-2-yl)phenyl)-1H-benzoimidazole] | 50%
0.028 µM | – | FC(F)(F)c1cccnc1-c1ccc(-c2nc3ccc(Br)cc3[nH]2)nc1 [Compound 165, 6-bromo-2-(5-(3-(trifluoromethyl)pyridin-2-yl)pyridin-2-yl)-1H-benzoimidazole] | 60%
0.015 µM | – | FC(F)(F)c1cccnc1-c1ccc(-c2nc3cc(Cl)c(Cl)cc3[nH]2)nc1 [Compound 163, 6′-(5,6-dichloro-1H-benzoimidazole-2-yl)-3-trifluoromethyl-[2,3′]bipyridine] | 41%
0.01 µM | 10% | FC(F)(F)c1cc(C(F)(F)F)c2nc(-c3ccc(-c4ncccc4C(F)(F)F)cc3)[nH]c2c1 [Compound 33, 4,6-bistrifluoromethyl-2-[4-(3-trifluoromethylpyridin-2-yl)phenyl]-1H-benzoimidazole] | 31%
0.008 µM | 66% | FC(F)(F)c1cc(Cl)c2nc(-c3ccc(-c4ncccc4C(F)(F)F)cc3)[nH]c2c1 [Compound 31, 4-chloro-6-trifluoromethyl-2-[4-(3-trifluoromethylpyridin-2-yl)phenyl]-1H-benzoimidazole] | 35%
0.004 µM | 50% | CS(=O)(=O)Nc1ccc(-c2ccc(-c3nc4c(C(F)(F)F)cc(C(F)(F)F)cc4[nH]3)cc2)cc1F [Compound 29, N-[4′-(4,6-bistrifluoromethyl-1H-benzoimidazole-2-yl)-3-fluorobiphenyl-4-yl]methanesulfonamide] | 41%
